The Ki is a dissociation constant, usually derived from enzyme kinetics or from competition with a known ligand.

Our source for the Ki values is PMC6868039, “Maltose Processing and Not β-Amylase Activity Curtails Hydrolytic Starch Degradation in the CAM Orchid Phalaenopsis” (Frontiers in Plant Science, 2019).

The target in this test is T1, PEPC (phosphoenolpyruvate carboxylase).
T1 construct: native enzyme in desalted (Sephadex G-25) crude leaf extract, not purified; phosphorylation state varies over the day
In words: NADH oxidation at […] nm, coupled to endogenous MDH in desalted leaf extract. The class given is biochemical, Phalaenopsis hybrid cultivar. As to conditions: daytime leaves (mean of fluctuating values); 2.5 mM PEP, 10 mM NaHCO3, 5 mM MgCl2, pH 7.5, 25 °C; crude desalted extract.

Structures are written as SMILES.

In the case of `O=C(O)C[C@H](O)C(=O)O` [malic acid], the Ki amounted to 6 ± 3 mM.
